Patent US5639899A, “Prostaglandin E1 analogues” (Taisho Pharmaceutical Co., Ltd., priority 1991, dated 1997)

Key:
[1] = Blood Pressure Lowering Test in Anesthetized Dogs; format: in vivo, dog (male mongrel); conditions: intravenous
Experimental: Male mongrel dogs, weighing 13 kg, were anesthetized by intravenous administration of 30 mg/kg of sodium pentobarbital. A cannula inserted into the left femoral […] was attached to a blood pressure transducer to measure blood pressure. A solution of the test drug in ethanol, if necessary, was diluted with ethanol. 10 μl of the solution was administered through the vein via a cannula inserted into the left anterior limb vein. The blood pressure lowering rate by the test drug was calculated by the following formula: [formula]

Rabbit Blood Platelet = Rabbit Blood Platelet Aggregation Inhibition Test; format: cell-based, rabbit (New Zealand white strain); conditions: Oryctolagus cuniculus, rabbit PRP, ADP 5 μM, 37° C., mean value
Experimental: Groups of four New Zealand white strain rabbits, each weighing 2.5 to 4.0 kg, were used for the test. […] The collected blood was Centrifuged at 1100 rpm for 15 minutes to give platelet rich plasma (PRP) as a supernatant. […] 194, page 927 (1962)]. That is, 1 μl of the test drug dissolved in ethanol at the desired concentration was added to 275 μl of PRP, and the mixture was stirred at 1000 rpm at 37° C.
The aggregation inhibition rate was calculated on the basis of the aggregation obtained by using ethanol in place of the test drug solution, and the aggregation inhibition activity was expressed as IC50 value which was determined from the dose response curve.
Results are shown in Table 2 wherein the compound number is as defined in the examples described hereinafter, and the IC50 value is expressed as the mean value.

[2] = system: Guinea-pig Blood Platelet; experiment: Guinea-pig Blood Platelet Aggregation Inhibition Test (oral administration, aggregation measured in PRP); format: in vivo, guinea-pig (male Hartley strain); conditions: 50 μg/kg
Description: The effects of the present invention are illustrated in more detail by the following experiments. Experiment 1 [Guinea-pig Blood Platelet Aggregation Inhibition Test]
194, page 927 (1962)]. […] [formula]
In the table are recited data of the compound obtained by converting the triple bond between the 13- and 14-positions of Compound 9 of Example 23 into a double bond as a comparative compound (limaprost) [Tsuboi et al, Arch. Intern. Pharmacodyn. Ther., vol. 247, page 89 (1980)].

IC50 (Rabbit Blood Platelet) [nM] | Compound | Aggregation Inhibition Rate, ADP Aggregation, 2 hours after administration ([2]; ADP 3 μM) [%] | Aggregation Inhibition Rate, Collagen Aggregation, 2 hours after administration ([2]; collagen 3 μg/ml) [%] | also measured
1.1 | COC(=O)C#CCCCC[C@H]1C(=O)C[C@@H](O)[C@@H]1C#C[C@@H](O)CC(C)CCC=C(C)C (stereo partly drawn) [Compound 7, (17RS)-20-Nor-17-methyl-19-(2'-methylprop-1'-enyl)-2,2,3,3,13,14-hexadehydro-PGE1 Methyl Ester] |  |  | 
0.37 | CCCC[C@@H](C)C[C@H](O)C#C[C@H]1[C@H](O)CC(=O)[C@@H]1CCCCC#CC(=O)O [Compound 16, (17R)-17,20-Dimethyl-2,2,3,3,13,14-hexadehydro-PGE1] |  |  | 
1.7 | CCC#CCC(C)[C@H](O)C#C[C@H]1[C@H](O)CC(=O)[C@@H]1CCCC/C=C/C(=O)OC (stereo partly drawn) [Compound 2, (2E,16RS)-16,20-Dimethyl-2,3,13,14,18,18,19,19-octadehydro-PGE1 Methyl Ester] |  |  | 
1.1 | CCC#CCC(C)[C@H](O)C#C[C@H]1[C@H](O)CC(=O)[C@@H]1CCCC/C=C/C(=O)O (stereo partly drawn) [Compound 10, (2E,16RS)-16,20-Dimethyl-2,3,13,14,18,18,19,19-octadehydro-PGE1] |  |  | 
 | CCCCOC(=O)C#CCCCC[C@H]1C(=O)C[C@@H](O)[C@@H]1C#C[C@@H](O)C[C@@H](C)CCCC [Compound 6, (17S)-17,20-Dimethyl-2,2,3,3,13,14-hexadehydro-PGE1 n-butyl Ester] | 22.8 | 58.2 | 
3 | CCCC[C@H](C)C[C@H](O)C#C[C@H]1[C@H](O)CC(=O)[C@@H]1CCCCC#CC(=O)OC [Compound 4, (71S)-17,20-Dimethyl-2,2,3,3,13,14-hexadehydro-PGE1 Methyl Ester] |  |  | 
5.1 | CCCC[C@H](C)C[C@H](O)C#C[C@H]1[C@H](O)CC(=O)[C@@H]1CCCCCC/C=C/C(=O)O [Compound 15, (2E,17S)-2a,2b-Dihomo-17,20-dimethyl-2,2a,13,14-tetradehydro-PGE1] |  |  | 
0.74 | CCCC[C@@H](C)C[C@H](O)C#C[C@H]1[C@H](O)CC(=O)[C@@H]1CCCCC#CC(=O)OC [Compound 8, (17R)-17,20-Dimethyl-2,2,3,3,13,14-hexadehydro-PGE1 Methyl Ester] |  |  | 
2.7 | CCCCCC(C)C[C@H](O)C#C[C@H]1[C@H](O)CC(=O)[C@@H]1CCCC/C=C/C(=O)O (stereo partly drawn) [Compound 13, (2E,17RS)-17-Methyl-20-ethyl-2,3,13,14-tetradehydro-PGE1] |  |  | 
6.3 | O=C(O)/C=C/CCCC[C@H]1C(=O)C[C@@H](O)[C@@H]1C#C[C@@H](O)C1CCCCC1 [Compound 11, (2E)-16,17,18,19,20-Pentanor-15-cyclohexyl-2,3,13,14-tetradehydro-PGE1] |  |  | 
 | CCCC[C@H](C)C[C@H](O)C#C[C@H]1[C@H](O)CC(=O)[C@@H]1CCCC/C=C/C(=O)OC [Compound 1, (2E,17S)-17,20-Dimethyl-2,3,13,14-tetradehydro-PGE1 Methyl Ester] | 9.8 | 25.7 | blood pressure lowering rate ([1]; 0.03 μg/kg): 10.1%
5.1 | CCCC[C@H](C)C[C@H](O)C#C[C@H]1[C@H](O)CC(=O)[C@@H]1CCCCC#CC(=O)O [Compound 12, (17S)-17,20-Dimethyl-2,2,3,3,13,14-hexadehydro-PGE1] |  |  | 
6 | COC(=O)/C=C/CCCC[C@H]1C(=O)C[C@@H](O)[C@@H]1C#C[C@@H](O)C1CCCCC1 [Compound 3, (2E)-16,17,18,19,20-Pentanor-15-cyclohexyl-2,3,13,14-tetradehydro-PGE1Methyl Ester] |  |  | blood pressure lowering rate ([1]; 0.03 μg/kg): 11.5%
26 | CCCCC[C@H](O)/C=C/[C@H]1[C@H](O)CC(=O)[C@@H]1CCCCCCC(=O)O [PGE1] |  |  | blood pressure lowering rate ([1]; 1 μg/kg): 13.9%; blood pressure lowering rate ([1]; 3 μg/kg): 23.7%

Compound | IC50 (Rabbit Blood Platelet) [nM] | Aggregation Inhibition Rate, ADP Aggregation, 2 hours after administration ([2]; ADP 3 μM) [%] | Aggregation Inhibition Rate, Collagen Aggregation, 2 hours after administration ([2]; collagen 3 μg/ml) [%] | also measured
CCCC[C@H](C)C[C@H](O)/C=C/[C@H]1[C@H](O)CC(=O)[C@@H]1CCCC/C=C/C(=O)O [limaprost, reference compound] | 6.3 | 3.4 | 16.2 | blood pressure lowering rate ([1]; 0.5 μg/kg): 13.9%; blood pressure lowering rate ([1]; 1 μg/kg): 23.8%
CCCC[C@H](C)C[C@H](O)C#C[C@H]1[C@H](O)CC(=O)[C@@H]1CCCC/C=C/C(=O)O [Compound 9, (2E,17S)-17,20-Dimethyl-2,3,13,14-tetradehydro-PGE1] | 2.6 | 26.4 | 28.4 | blood pressure lowering rate ([1]; 0.03 μg/kg): 23.7%
CCCC[C@@H](C)C[C@H](O)C#C[C@H]1[C@H](O)CC(=O)[C@@H]1CCCC/C=C/C(=O)OC [Compound 5, (2E,17R)-17,20-Dimethyl-2,3,13,14-tetradehydro-PGE1 Methyl Ester] | 1.4 | 25.9 | 1.6 | 
CCCC[C@@H](C)C[C@H](O)C#C[C@H]1[C@H](O)CC(=O)[C@@H]1CCCC/C=C/C(=O)O [Compound 14, (2E,17R)-17,20-Dimethyl-2,3,13,14-tetradehydro-PGE1] | 1.3 | 52.5 | 100.0 | Aggregation Inhibition Rate, ADP Aggregation, 8 hours after administration ([2]; 8 hours after administration, ADP 3 μM): 31.8%; Aggregation Inhibition Rate, Collagen Aggregation, 8 hours after administration ([2]; 8 hours after administration, collagen 3 μg/ml): 61.0%
